A word on the IC50: it is the concentration at which inhibition is half-maximal.

In the assay the target is T1, wildtype HIV-1 protease (Human immunodeficiency virus type 1 group M subtype B, UniProt P04585).
T1 construct: preincubated with the HIV-1 protease (wild type) enzyme in assay buffer; made in house; host or cells: Escherichia coli
Put plainly: Assay for inhibition of microbial expressed HIV protease (Pepcleav). Conditions: wild type HIV-1 protease 20 pM, peptide substrate 400 micromolar, pH 5.5; mean of at least two independent experiments. It counts as biochemical. On the procedure:
Assay for Inhibition of Microbial Expressed HIV Protease (“Pepcleav”)
Studies of the inhibition of the wildtype HIV-1 protease (which was expressed in Escherichia coli) were carried out with a peptide substrate [Val-Ser-Gln-Asn-(βnaphtyl)Ala-Pro-Ile-Val (SEQ ID NO 1)]. The inhibitor was first preincubated with the HIV-1 protease (wild type) enzyme in assay buffer (50 mM sodium acetate, pH 5.5, 100 mM NaCl, and 0.1% BSA) for 30 minutes at room temperature. Substrate was added to 400 micromolar in a total volume of 20 microliters containing 20 picomolar HIV-1 protease (final) and the reaction is incubated for 1 hour at 30° C. The reaction was quenched with the addition of formic acid and indinavir to 0.012% and 150 nM final concentrations, respectively. Product formation was determined after separation of product and substrate on a Zorbax Eclipse XDB-C18 column connected to an API 4000 mass spectrometer (Applied Biosystems) with multiple reaction monitoring (transitions were 644.5/428.9 and 615.4/422.2 (M1/M3) for product and indinavir respectively). The extent of inhibition of the reaction was determined from the peak area of the products.
For `COC(=O)N[C@H](C(=O)Nc1ccccc1CCC1CNC[C@@H](COc2ccccc2-c2cc[nH]n2)O1)C(c1ccccc1)c1ccccc1` (stereo in doubt) [Example 110, Nα-(methoxycarbonyl)-β-phenyl-N-(2-{2-[(2R,6S)-6-{[2-(1H-pyrazol-3-yl)phenoxy]methyl}morpholin-2-yl]ethyl}phenyl)-L-phenylalaninamide], the IC50 stood at 250 nM.

Molecule `COC(=O)N[C@H](C(=O)NCCCCC1CNC[C@@H](CS(=O)(=O)c2ccc(N)cc2)O1)C(c1ccccc1)c1ccccc1` (stereo partly drawn) [Example 1, Methyl N-[(1S)-1-[4-[(6S)-6-[(4-aminophenyl)sulfonylmethyl]morpholin-2-yl]butylcarbamoyl]-2,2-diphenyl-ethyl]carbamate] showed an IC50 of 450 nM. This IC50 is about 1.8-fold higher than that of the molecule before.

The molecule `COC(=O)N[C@H](C(=O)NCCCC1CNC[C@@H](CSc2ccc(Cl)cc2)O1)C(c1ccccc1)c1ccccc1` (stereo partly drawn) [Example 2, methyl N-[(1S)-1-benzhydryl-2-[3-[(6S)-6-[(4-chlorophenyl)sulfanylmethyl]morpholin-2-yl]propylamino]-2-oxo-ethyl]carbamate] showed an IC50 of 300 nM.

In turn, `COC(=O)N[C@H](C(=O)NCCCC1CNC[C@@H](CSc2ccc(Cl)cc2C)O1)C(c1ccccc1)c1ccccc1` (stereo partly drawn) [Example 3, methyl N-[(1S)-1-benzhydryl-2-[3-[(6S)-6-[(4-chloro-2-methyl-phenyl)sulfanylmethyl]morpholin-2-yl]propylamino]-2-oxo-ethyl]carbamate] yielded an IC50 of 420 nM.

As to `COC(=O)N[C@H](C(=O)Nc1ccccc1CCC1CNC[C@@H](CS(=O)(=O)c2ccc3ccccc3c2)O1)C(c1ccccc1)c1ccccc1` (stereo partly drawn) [Example 4, methyl N-[(1S)-1-benzhydryl-2-[[2-[2-[(6S)-6-(2-naphthylsulfonylmethyl)morpholin-2-yl]ethyl]phenyl]amino]-2-oxo-ethyl]carbamate], the IC50 was determined as 62 nM.

`COC(=O)N[C@H](C(=O)Nc1ccccc1CCC1CNC[C@@H](COc2ccc(Cl)cc2)O1)C(c1ccccc1)c1ccccc1` (stereo partly drawn) [Example 5, methyl N-[(1S)-1-benzhydryl-2-[[2-[2-[(6S)-6-[(4-chlorophenoxy)methyl]morpholin-2-yl]ethyl]phenyl]amino]-2-oxo-ethyl]carbamate] returned an IC50 of 58 nM. The IC50 values of the last two molecules are within 1.5-fold of each other.

For `COC(=O)N[C@H](C(=O)Nc1ccccc1CCC1CNC[C@@H](CSc2ccc(Cl)cc2)O1)C(c1ccccc1)c1ccccc1` (stereo partly drawn) [Example 6, methyl N-[(1S)-1-benzhydryl-2-[[2-[2-[(6S)-6-[(4-chlorophenyl)sulfanylmethyl]morpholin-2-yl]ethyl]phenyl]amino]-2-oxo-ethyl]carbamate], inhibition was half-maximal at 1.9 nM (IC50).

Molecule `COC(=O)N[C@H](C(=O)Nc1ccccc1CC[C@@H]1CNC[C@@H](CSc2ccc(Cl)cc2)O1)C(c1ccccc1)c1ccccc1` [Example 7, methyl N-[(1S)-1-benzhydryl-2-[[2-[2-[(2R,6S)-6-[(4-chlorophenyl)sulfanylmethyl]morpholin-2-yl]ethyl]phenyl]amino]-2-oxo-ethyl]carbamate] came in with an IC50 of 2 nM.

Regarding `COC(=O)N[C@H](C(=O)Nc1ccccc1CC[C@@H]1CNC[C@@H](CSc2ccc(Br)cc2)O1)C(c1ccccc1)c1ccccc1` [Example 8, methyl N-[(1S)-1-benzhydryl-2-[[2-[2-[(2R,6S)-6-[(4-bromophenyl)sulfanylmethyl]morpholin-2-yl]ethyl]phenyl]amino]-2-oxo-ethyl]carbamate], the IC50 was found to be 2.1 nM.

`COC(=O)N[C@H](C(=O)Nc1ccccc1CC[C@@H]1CNC[C@@H](COc2ccc(Br)cc2)O1)C(c1ccccc1)c1ccccc1` [Example 9, methyl N-[(1S)-1-benzhydryl-2-[[2-[2-[(2R,6S)-6-[(4-bromophenoxy)methyl]morpholin-2-yl]ethyl]phenyl]amino]-2-oxo-ethyl]carbamate] registered an IC50 of 18 nM.

These data come from patent US9994587B2, “HIV protease inhibitors” (priority 2014, dated 2018).
